According to the supplement of paper PMC11619387:
≈ marks a conversion by molar mass, not a printed value.

Columns and labels:
[1] = tested on: Pseudomonas aeruginosa PAO1-Xen41; test: EC50 of growth/kill rate concentration-effect curve
Method: (§1)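 Time-kill assays of bioluminescent P. aeruginosa PAO1-Xen41 (start ~5e6 CFU/mL) in 96-well plates at 37 °C, 150 rpm. Luminescence was read hourly for 20 h in cation-adjusted Mueller-Hinton broth, either non-conditioned (MH broth with or without supplements) or conditioned by one of 13 CF-associated species, then filter-sterilised and nutrient-replenished. Growth/kill rates came from log-linear regression of the exponential phase at 9-10 antibiotic concentrations, and Hill (Emax) models were fitted with drc for each replicate.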

[2] = tested on: Pseudomonas aeruginosa PAO1-Xen41; test: Hill coefficient of concentration-effect curve (unitless); higher = steeper concentration-effect curve
Method: as §1

[3] = tested on: Pseudomonas aeruginosa PAO1-Xen41; test: Emax, maximal drug effect on net growth rate (fitted lower asymptote) (per hour (slope of log luminescence)); higher = weaker maximal killing (less negative)
Method: as §1

O=C(O)c1cn(C2CC2)c2cc(N3CCNCC3)c(F)cc2c1=O [ciprofloxacin]
Settings	EC50, [1] [µg/mL]	Emax, [3]	Hill coefficient, [2]
medium (conditioned by secondary species or non-conditioned control): A. baumannii	0.0737 (≈ 0.222 µM)	-0.126	4.99
medium (conditioned by secondary species or non-conditioned control): A. fumigatus	0.08478 (≈ 0.256 µM)	-0.125	6.73
medium (conditioned by secondary species or non-conditioned control): A. xylosoxidans	0.0394 (≈ 0.119 µM)	-0.0897	5.96
medium (conditioned by secondary species or non-conditioned control): B. cepacia	–	-0.0915	3.61
medium (conditioned by secondary species or non-conditioned control): C. albicans	0.08689 (≈ 0.262 µM)	-0.0975	6.2
medium (conditioned by secondary species or non-conditioned control): H. influenzae	0.0686 (≈ 0.207 µM)	-0.124	4.89
medium (conditioned by secondary species or non-conditioned control): M. abcessus	0.046 (≈ 0.139 µM)	-0.124	4.82
medium (conditioned by secondary species or non-conditioned control): M. avium	0.0646 (≈ 0.195 µM)	-0.0922	3.72
medium (conditioned by secondary species or non-conditioned control): M. catarrhalis	0.0542 (≈ 0.164 µM)	-0.0659	1.71
medium (conditioned by secondary species or non-conditioned control): MH broth	0.0844 (≈ 0.255 µM)	-0.125	6.8
medium (conditioned by secondary species or non-conditioned control): MH broth + ADC	0.0577	-0.11	3.02
medium (conditioned by secondary species or non-conditioned control): MH broth + LHB + NAD	0.0388	-0.106	4.99
medium (conditioned by secondary species or non-conditioned control): MH broth + glucose	0.0437	-0.101	5.64
medium (conditioned by secondary species or non-conditioned control): R. mannitolilytica	0.0451 (≈ 0.136 µM)	-0.0966	4.94
medium (conditioned by secondary species or non-conditioned control): S. aureus	0.0434 (≈ 0.131 µM)	-0.0957	5.13
medium (conditioned by secondary species or non-conditioned control): S. maltophilia	0.0279 (≈ 0.0843 µM)	-0.0883	3.59
medium (conditioned by secondary species or non-conditioned control): S. pneumoniae	0.0738 (≈ 0.223 µM)	-0.117	4.27

CN(C)c1ccc(O)c2c1C[C@H]1C[C@H]3[C@H](N(C)C)C(O)=C(C(N)=O)C(=O)[C@@]3(O)C(O)=C1C2=O [minocycline]
Settings	EC50, [1] [µg/mL]	Emax, [3]	Hill coefficient, [2]
medium (conditioned by secondary species or non-conditioned control): A. baumannii	41.5 (≈ 90.7 µM)	-0.0946	3.37
medium (conditioned by secondary species or non-conditioned control): A. fumigatus	4.51 (≈ 9.87 µM)	-0.12	5.95
medium (conditioned by secondary species or non-conditioned control): A. xylosoxidans	29.9 (≈ 65.4 µM)	-0.193	6.19
medium (conditioned by secondary species or non-conditioned control): B. cepacia	65.8 (≈ 144 µM)	-0.464	1.13
medium (conditioned by secondary species or non-conditioned control): C. albicans	7.19 (≈ 15.7 µM)	-0.223	5.63
medium (conditioned by secondary species or non-conditioned control): H. influenzae	9.75 (≈ 21.3 µM)	-0.198	1.67
medium (conditioned by secondary species or non-conditioned control): M. abcessus	81 (≈ 177 µM)	-0.72	0.784
medium (conditioned by secondary species or non-conditioned control): M. avium	6.33 (≈ 13.8 µM)	-0.13	5.77
medium (conditioned by secondary species or non-conditioned control): M. catarrhalis	21.1 (≈ 46.2 µM)	-0.0725	3.92
medium (conditioned by secondary species or non-conditioned control): MH broth	18.7 (≈ 40.9 µM)	-0.41	1.16
medium (conditioned by secondary species or non-conditioned control): MH broth + ADC	3.939	-0.071	15
medium (conditioned by secondary species or non-conditioned control): MH broth + LHB + NAD	8.7	-0.184	1.74
medium (conditioned by secondary species or non-conditioned control): MH broth + glucose	19.7	-0.432	1.2
medium (conditioned by secondary species or non-conditioned control): R. mannitolilytica	72.8 (≈ 159 µM)	-0.649	0.909
medium (conditioned by secondary species or non-conditioned control): S. aureus	87.8 (≈ 192 µM)	-0.776	0.785
medium (conditioned by secondary species or non-conditioned control): S. maltophilia	81 (≈ 177 µM)	-0.713	0.781
medium (conditioned by secondary species or non-conditioned control): S. pneumoniae	4.82 (≈ 10.5 µM)	-0.0595	2.06

C[C@H]1[C@H](NC(=O)/C(=N\OC(C)(C)C(=O)O)c2csc(N)n2)C(=O)N1S(=O)(=O)O [aztreonam]
Settings	EC50, [1] [µg/mL]	Emax, [3]	Hill coefficient, [2]
medium (conditioned by secondary species or non-conditioned control): A. baumannii	4.5 (≈ 10.3 µM)	-0.0894	6.71
medium (conditioned by secondary species or non-conditioned control): A. fumigatus	5.15 (≈ 11.8 µM)	-0.0521	5.79
medium (conditioned by secondary species or non-conditioned control): A. xylosoxidans	4.96 (≈ 11.4 µM)	-0.0816	6.69
medium (conditioned by secondary species or non-conditioned control): B. cepacia	4.4 (≈ 10.1 µM)	-0.108	7.76
medium (conditioned by secondary species or non-conditioned control): C. albicans	6.25 (≈ 14.4 µM)	-0.0614	3.57
medium (conditioned by secondary species or non-conditioned control): H. influenzae	5.7 (≈ 13.1 µM)	-0.196	1.98
medium (conditioned by secondary species or non-conditioned control): M. abcessus	4.66 (≈ 10.7 µM)	-0.0657	6.22
medium (conditioned by secondary species or non-conditioned control): M. avium	4.58 (≈ 10.5 µM)	-0.0782	6.26
medium (conditioned by secondary species or non-conditioned control): M. catarrhalis	5.07 (≈ 11.6 µM)	-0.16	4.2
medium (conditioned by secondary species or non-conditioned control): MH broth	4.48 (≈ 10.3 µM)	-0.0757	7.92
medium (conditioned by secondary species or non-conditioned control): MH broth + ADC	4.55	-0.0421	5.14
medium (conditioned by secondary species or non-conditioned control): MH broth + LHB + NAD	4.7	-0.148	3.43
medium (conditioned by secondary species or non-conditioned control): MH broth + glucose	5.04	-0.0548	4.64
medium (conditioned by secondary species or non-conditioned control): R. mannitolilytica	4.356 (≈ 10 µM)	-0.0751	7.94
medium (conditioned by secondary species or non-conditioned control): S. aureus	4.88 (≈ 11.2 µM)	-0.072	4.66
medium (conditioned by secondary species or non-conditioned control): S. maltophilia	4.32 (≈ 9.92 µM)	-0.114	3.3
medium (conditioned by secondary species or non-conditioned control): S. pneumoniae	5.6 (≈ 12.9 µM)	-0.138	3.85
